# Test results as given in the supplement of paper PMC5770543.
# ± gives the standard deviation.
# What was measured:
# [1] = test system: Plasmodium falciparum 3D7; assay: EC50 growth inhibition (60 h, SYBR Green); conditions: stage: ring-stage start
# [2] = test system: Toxoplasma gondii RH tachyzoites; assay: median egress time after A23187 ionophore; higher = stronger egress inhibition; conditions: 10 µM; pretreatment time: 24 h
# Description: (§1)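 T. gondii RH tachyzoites expressing firefly luciferase were grown in HFF monolayers for 48 h with compound. % growth inhibition at 10 µM and EC50 (2-fold dilutions from 10 µM) were read by luminescence relative to 1% DMSO; EC50 listed as 10 (not determined, <80% inhibition) is left out. Plaque assays: 50 tachyzoites per well with 10 µM compound for 8-10 days, giving plaque count and area by crystal violet/ImageJ. Egress: median time to egress after 1 µM A23187 ionophore following 24 h of 10 µM compound (DMSO ~1.8 min; >10 = no egress within 10 min).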
# [3] = test system: Toxoplasma gondii RH tachyzoites; assay: % growth inhibition vs DMSO (48 h luciferase); higher = more inhibition; conditions: 10 µM
# [4] = test system: Toxoplasma gondii RH tachyzoites; assay: plaque count per well; higher = less inhibition; extreme values may be limits of the assay; conditions: 10 µM; 8-10 days
# Description: as §1
# [5] = test system: Plasmodium falciparum 3D7; assay: % inhibition of schizont-to-ring transition vs DMSO; higher = more inhibition
# Method in brief: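 Schizont-to-ring transition inhibition is the formation of new rings relative to vehicle controls. Tightly synchronised P. falciparum schizonts at about 40–42 hours post-invasion (1% parasitemia, 2.5% hematocrit, AlbuMAX-supplemented RPMI) were treated with compound at 1, 3 or 10 µM, alongside vehicle and positive controls. After glutaraldehyde fixation, Triton permeabilisation and Hoechst 33342 staining, at least 100,000 events were counted by flow cytometry, and values are the mean of three experiments.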
# [6] = target: Toxoplasma gondii RH tachyzoites; assay: EC50 growth inhibition (48 h luciferase)
# 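Throughout, for % growth inhibition vs DMSO (48 h luciferase): tested in triplicate wells of 96-well plates on confluent HFF monolayers, with 1% DMSO wells as negative control in four replicates.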
SMILES,EC50 growth inhibition [1],median egress time [2],% growth inhibition [3],plaque count per well [4],% inhibition of schizont-to-ring transition ([5]; 1 µM),% inhibition of schizont-to-ring transition ([5]; 3 µM),% inhibition of schizont-to-ring transition ([5]; 10 µM),EC50 growth inhibition [6]
Cc1c(C)n(CC(O)CNC2CCCCC2C)c2ccccc12 (configuration not stated),2180 nM,3.07 min,< 0%,23,14.4%,32.3%,64.2%,
CCOc1cc(Cl)c(C(C)NC(=O)c2ccccc2)cc1OCC (configuration not stated),1450 nM,2.67 min,< 0%,22,46.5%,78.6%,76.7%,
CC(NCc1ccccc1)c1cc(Cl)ccc1O (configuration not stated),801 nM,2.27 min,14.9 ± 6%,29,29.2%,44.4%,66.6%,
CC(=O)Nc1nnc(SCc2c(C)cc(C(C)(C)C)cc2C)s1,,2.4 min,< 0%,21,42.7%,46.5%,55.4%,
COc1ccc2sc(N(Cc3cccnc3)C(=O)c3ccc(C#N)cc3)nc2c1,6590 nM,> 10 min,< 0%,21,35.3%,39.1%,51.7%,
OC(CNC1CCCCC1)Cn1c2ccc(I)cc2c2cc(I)ccc21 (configuration not stated),591 nM,1.33 min,< 0%,3,39.7%,69%,73.8%,
CCOc1cccc(C(=O)Nc2ccc(-c3nc4ccccc4[nH]3)cc2)c1,,1.87 min,< 0%,28,7.94%,22.4%,54.6%,
CCOc1ccccc1CN1CCc2nc3cc(C(C)(C)C)nn3c(O)c2C1,2290 nM,1.47 min,< 0%,28,34.2%,42.8%,49.8%,
COc1ccc(C(=O)C(CCC(CNC(C)(C)C)C(=O)c2ccc(OC)cc2)CNC(C)(C)C)cc1 (configuration not stated),1450 nM,,89.2 ± 2.7%,0,< 0%,16.3%,66.1%,1510 nM
Oc1ccccc1CN1CCC2(CCCN(Cc3ccccc3F)C2)C1 (configuration not stated),1140 nM,2.13 min,< 0%,26,31.4%,37.7%,60.6%,
COCCNCC(O)Cn1c2ccc(Cl)cc2c2cc(Cl)ccc21 (configuration not stated),700 nM,,99.95 ± 0.13%,,5.35%,32.1%,67.1%,6290 nM
O=c1nc(C=Cc2ccc(Cl)cc2)oc2ccccc12,999 nM,,94.2 ± 2.2%,,16.8%,24.1%,56.2%,32.4 nM
Nc1nc(Nc2cccc(F)c2)nc2ccccc12,1030 nM,,100.5 ± 0.22%,,15.3%,31.5%,62.7%,8210 nM
OC(CNCc1ccccc1)Cn1c2ccccc2c2ccccc21 (configuration not stated),2200 nM,,48.3 ± 2%,,37.8%,43%,65.5%,286 nM
COc1cc(-c2nc(-c3ccc(Sc4ccccc4)cc3)c(-c3ccccc3)[nH]2)cc(OC)c1O,449 nM,,98.59 ± 0.34%,,< 0%,< 0%,45.4%,1320 nM
N=c1n(CCN2CCCCC2)c2ccccc2n1CC(O)c1cccc(Br)c1 (configuration not stated),624 nM,,85.2 ± 2.2%,,< 0%,35.2%,64%,4580 nM
COc1ccccc1NC1=C(N2CCCCC2)C(=O)c2ccccc2C1=O,35.9 nM,,90.3 ± 3.8%,,38.5%,61.8%,64.7%,4950 nM
FC(F)(F)c1ccc(Nc2nnnc3ccccc23)cc1,1020 nM,,83.5 ± 1.2%,,< 0%,4.32%,52.7%,681 nM
CCOc1ccc2nc(C)cc(Nc3ccc(N(C)C)cc3)c2c1,410 nM,,98.02 ± 0.4%,,44.9%,65.7%,69.3%,1440 nM
COc1ccc(Nc2nc(N/N=C/c3ccc(O)cc3)nc(Nc3ccc([N+](=O)[O-])cc3)n2)cc1,1100 nM,,100.2 ± 0.27%,,20.8%,44%,63%,2630 nM
CCOC(=O)C1=CN(C)C=C(C(=O)OCC)C1c1cc(Br)c(OCC)c(OC)c1,1040 nM,,95.51 ± 0.24%,,41.2%,58.3%,58.9%,2590 nM
c1ccc(CNc2nc(Nc3ccccc3)nc3ccccc23)cc1,181 nM,,99.917 ± 0.022%,,44.8%,51.2%,66.8%,708 nM
FC(F)(F)c1cccc(Nc2nc3ccccc3nc2Nc2cccc(C(F)(F)F)c2)c1,6400 nM,,99.49 ± 0.16%,,< 0%,15.6%,42.7%,46.4 nM
COc1ccc(C2NCCc3c2[nH]c2ccccc32)cc1CN1CCN(c2ccc(F)cc2)CC1 (configuration not stated),468 nM,,99.96 ± 0.41%,,26.9%,62.9%,77.3%,4880 nM
O=c1c2c([nH]c3ccccc13)CCCC2,1790 nM,,89.6 ± 1.1%,,13.7%,22.2%,42.9%,1040 nM
CC1CC2=C(CC1CNCCCN(C)C)C(C)(C)CCC2 (configuration not stated),618 nM,,99.59 ± 0.27%,,9.39%,52.2%,73.9%,3170 nM
Cc1ccc(Nc2nc(N)c3ccccc3n2)cc1Cl,427 nM,,98.03 ± 0.51%,,23.3%,60.8%,67.5%,1980 nM
COc1ccc(-c2nc3cc(Cc4ccc5[nH]c(-c6ccc(OC)cc6)nc5c4)ccc3[nH]2)cc1,185 nM,,100 ± 0.58%,,50.4%,65.3%,68.3%,1470 nM
Oc1ccc(Cl)cc1CNc1nc2ccccc2[nH]1,1420 nM,,96.5 ± 1.9%,,22.5%,38.5%,58.6%,1310 nM
